# According to paper PMC12662691, “DDX3X Promotes Rotavirus Infection and Serves as an Antiviral Target” (Transboundary and Emerging Diseases, 2025):
# Key:
# MYAS33 RV strain [1] = assay: EC50 determination of anti-RV activity by RT-qPCR, MYAS33 strain; assay type: cell-based; settings: Rotavirus, 0.1 MOI, 24 h, read-out: EC50 against RV infection
# Protocol: (§1) Cells were seeded into 96-well plates, allowed to adhere, followed by drug inoculation in a concentration gradient along with RV infection at 0.1 MOI. After 24 h, cells were collected, total RNA was extracted, reverse transcription was performed, and RV was detected by RT-qPCR. The EC50 of the drug was calculated.
# MYAS33 RV strain [2] = assay: Antiviral efficacy screen, western blot of viral proteins; assay type: cell-based, Rotavirus; settings: range of drug concentrations
# Protocol: (a) Drugs were selected by gene dependent and network dependent strategy based on VP4 interacting proteins. (b) Cells were treated with a range of drug concentrations, and then, infected with MYAS33 RV strain. Subsequently, the cells were collected and subjected to western blot analysis to detect viral proteins.
# Cells were collected, washed with PBS, and digested with trypsin. The cells were then collected in PBS into centrifuge tubes. After centrifugation, the supernatant was discarded. The cells was lysed, and the resulting lysate was transferred to a new centrifuge tube. 5 × SDS-PAGE sample buffer was added, and the samples were boiled in a water bath. Subsequently, SDS-PAGE was performed, and the proteins were transferred onto nitrocellulose membranes. The membranes were blocked with 5% skim milk at room temperature, washed three times with TBST, and incubated overnight at 4°C with primary antibodies. After washing three times with TBST, corresponding secondary antibodies were added and incubated for 1 h at room temperature. Following three additional washes with TBST, ECL reagent was prepared and applied to the membrane. Finally, the membrane was exposed in a chemiluminescence imaging system.
# MSLH14 RV strain [3] = assay: EC50 determination of anti-RV activity by RT-qPCR, MSLH14 strain; assay type: cell-based, Rotavirus
# Protocol: as §1
# SA11 RV strain = assay: EC50 determination of anti-RV activity by RT-qPCR, SA11 strain; assay type: cell-based, Rotavirus
# Protocol: as §1
# MYAS33 RV strain [4] = assay: RK-33 time course of RV infection, RT-qPCR; assay type: cell-based, Rotavirus
# Protocol: (§2) Figure 7 RK-33 inhibits RV infection. (a, b) Cells were incubated with 10 μM RK-33 and infected with MYAS33 RV strain. The viral detection was conducted at 3, 6, 12, and 24 hpi by RT-qPCR detection, and at 12 and 24 hpi by TCID50. (c, d) EC50 of RK-33 against MSLH14 and SA11 strains was measured. (e) Flowchart of in vivo drug experiment. (f) Weight gain rate of mice. (g) Intestinal virus titer detection in mice. (h) H&E staining of intestine. (i–l) Cytokine detection of spleen. Statistical significance is determined by Student's test (^∗p < 0.05; ^∗∗p < 0.01; ^∗∗∗p < 0.001; ^∗∗∗∗p < 0.0001). HD, high dose; LD, low dose; ns, not significant. […] The name RK-33 is printed only in the plot legends of panels a and b.
# Total RNA was extracted from collected samples using TRIzol reagent (Sangon Biotech) and subsequently reverse transcribed into cDNA using a premix reverse transcriptase (Vazyme). For qPCR analysis, a SYBR Green qPCR Mix kit (Promega) was utilized in combination with a CFX96 system. All procedures were carried out following the manufacturers' guidelines as described previously.
# MYAS33 RV strain [5] = assay: RK-33 viral titer by TCID50; assay type: cell-based, Rotavirus
# Protocol: as §2
# MSLH14 RV strain [6] = assay: In vivo drug experiment in RV-challenged neonatal mice; settings: neonatal Kunming mice
# Protocol: Pregnant Kunming mice were individually housed and bred until delivery. Neonatal mice were raised for 1 week. Mice were inoculated with 10^4 TCID50 units of the MSLH14 RV strain via gavage. Drug administration was performed with 0.005 mg/g (low dose group) or 0.01 mg/g (high dose group). The drugs were dissolved in a solvent formulated as follows: 10% DMSO, 40% PEG300, 5% Tween-80, and 45% normal saline. Viral titers in the small intestine were determined using the TCID50 method. Spleens were collected for total RNA extraction, followed by reverse transcription and cytokine detection. For histopathological examination, tissues were fixed with 4% paraformaldehyde, paraffin embedded, sectioned into slices, and stained with hematoxylin and eosin following standard protocols as previously described.
# [7] = MSLH14, spleen, RT-qPCR, vs untreated controls
smiles,measurement,setting,value
CC(COc1ccccc1Cc1ccccc1)N1CCCCC1 (centres unmarked) [benproperine phosphate],EC50,MYAS33 RV strain [1],4.69 µM
same,Inhibitory effect against RV infection (antiviral efficacy screen),MYAS33 RV strain [2],exhibited inhibitory effects
COCCCC/C(=N\OCCN)c1ccc(C(F)(F)F)cc1 [fluvoxamine],EC50,MYAS33 RV strain [1],14.8 µM
same,Inhibitory effect against RV infection (antiviral efficacy screen),MYAS33 RV strain [2],exhibited inhibitory effects
COc1ccc(Cn2c3ncnc4c(ncn4Cc4ccc(OC)cc4)c-3nc2=O)cc1 [RK-33],EC50,MYAS33 RV strain [1],1.05 µM
same,Inhibition of MSLH14 infection,MSLH14 RV strain [3],also inhibits SA11 and MSLH14 infections
same,EC50,"MSLH14 RV strain [3]; Rotavirus, 0.1 MOI, 24 h, RT-qPCR, read-out: EC50 against MSLH14",0.91 µM
same,Inhibition of SA11 infection,SA11 RV strain,also inhibits SA11 and MSLH14 infections
same,EC50,"SA11 RV strain; Rotavirus, 0.1 MOI, 24 h, RT-qPCR, read-out: EC50 against SA11",0.86 µM
same,Inhibitory effect against RV infection (antiviral efficacy screen),MYAS33 RV strain [2],exhibited inhibitory effects
same,Inhibitory effect on RV (RT-qPCR),"MYAS33 RV strain [4]; 10 μM RK-33, MYAS33, 3 hpi",no significant inhibitory effect
same,Inhibitory effect on RV (RT-qPCR),"MYAS33 RV strain [4]; 10 μM RK-33, MYAS33, 6 hpi",pronounced antiviral activity
same,Inhibitory effect on RV (RT-qPCR),"MYAS33 RV strain [4]; 10 μM RK-33, MYAS33, 12 hpi",pronounced antiviral activity
same,Inhibitory effect on RV (RT-qPCR),"MYAS33 RV strain [4]; 10 μM RK-33, MYAS33, 24 hpi",pronounced antiviral activity
same,Viral titer (TCID50),"MYAS33 RV strain [5]; 10 μM RK-33, MYAS33, 12 h",inhibited MYAS33 strain infection
same,Viral titer (TCID50),"MYAS33 RV strain [5]; 10 μM RK-33, MYAS33, 24 h",inhibited MYAS33 strain infection
same,Intestinal lesions (H&E histopathology),"MSLH14 RV strain [6]; MSLH14, 5 days postinfection",alleviated intestinal lesions
same,Spleen IFNG level,MSLH14 RV strain [6]; [7],significantly reduced levels
same,Spleen IL-1B level,MSLH14 RV strain [6]; [7],significantly reduced levels
same,Spleen IL-6 level,MSLH14 RV strain [6]; [7],significantly reduced levels
same,Spleen TNFA level,MSLH14 RV strain [6]; [7],significantly reduced levels
same,Recovery of body weight (weight gain rate),"MSLH14 RV strain [6]; MSLH14 by gavage, 0.005 mg/g (low dose) or 0.01 mg/g (high dose), vs untreated controls",faster recovery of body weight
same,Intestinal viral titer (TCID50),"MSLH14 RV strain [6]; MSLH14 by gavage, 0.005 or 0.01 mg/g, small intestine, vs untreated controls",significantly reduced
Clc1cccc(N2CCN(c3cnnc4c(Cl)cccc34)CC2)c1 [FiVe 1],EC50,MYAS33 RV strain [1],3.99 µM
same,Inhibitory effect against RV infection (antiviral efficacy screen),MYAS33 RV strain [2],exhibited inhibitory effects
Cc1[nH]c2ccccc2c1CCNC(=O)c1ccccc1F [CK-666],EC50,MYAS33 RV strain [1],2.85 µM
same,Inhibitory effect against RV infection (antiviral efficacy screen),MYAS33 RV strain [2],exhibited inhibitory effects
Cc1[nH]c2ccccc2c1CCNC(=O)c1cccs1 [CK-636],EC50,MYAS33 RV strain [1],5.3 µM
same,Inhibitory effect against RV infection (antiviral efficacy screen),MYAS33 RV strain [2],exhibited inhibitory effects
